# Experimental data from the supplement of paper PMC10307832.
# Experiments:
# Experiment in all cases: relative viability (nuclei count vs DMSO), 5 days (fraction); higher = more cells survive
# [1] = compound: CC1(C)CCC(CN2CCN(c3ccc(C(=O)NS(=O)(=O)c4ccc(NCC5CCOCC5)c([N+](=O)[O-])c4)c(Oc4cnc5[nH]ccc5c4)c3)CC2)=C(c2ccc(Cl)cc2)C1 [Venetoclax] + COc1cccc2cc(-c3nc([C@H]4CC[C@H](C(=O)O)CC4)n4ncnc(N)c34)[nH]c12 [OSI-027] (partner 0.5 µM)
# Summary of the method: (§1)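 Medians of duplicate plates are given as relative viability. That measure is the nuclei count in treated wells divided by the count in vehicle wells. Counts were taken on 4× images of lung cancer cell lines in 1536-well plates, 5 days after pin-tool dosing the day after seeding with one drug alone or a fixed anchor-drug dose plus five library-drug doses (not always all listed) in √10 steps.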
# [2] = compound: CC1(C)CCC(CN2CCN(c3ccc(C(=O)NS(=O)(=O)c4ccc(NCC5CCOCC5)c([N+](=O)[O-])c4)c(Oc4cnc5[nH]ccc5c4)c3)CC2)=C(c2ccc(Cl)cc2)C1 [Venetoclax] + CS(=O)(=O)N1CCN(Cc2cc3nc(-c4cccc5[nH]ncc45)nc(N4CCOCC4)c3s2)CC1 [Pictilisib] (partner 1 µM)
# Summary of the method: as §1
# [3] = compound: Cn1cnc2c(F)c(Nc3ccc(Br)cc3Cl)c(C(=O)NOCCO)cc21 [Selumetinib] + CS(=O)(=O)CCNCc1ccc(-c2ccc3ncnc(Nc4ccc(OCc5cccc(F)c5)c(Cl)c4)c3c2)o1 [Lapatinib] (partner 2 µM)
# Summary of the method: as §1
# [4] = compound: Cn1cnc2c(F)c(Nc3ccc(Br)cc3Cl)c(C(=O)NOCCO)cc21 [Selumetinib] + Cc1nc(Nc2ncc(C(=O)Nc3c(C)cccc3Cl)s2)cc(N2CCN(CCO)CC2)n1 [Dasatinib] (partner 0.075 µM)
# Summary of the method: as §1
Cell Line,relative viability ([1]; first compound 0.01 µM),relative viability ([1]; first compound 0.03162 µM),relative viability ([1]; first compound 0.1 µM),relative viability ([1]; first compound 0.3162 µM),relative viability ([1]; first compound 1 µM),relative viability ([2]; first compound 0.01 µM),relative viability ([2]; first compound 0.03162 µM),relative viability ([2]; first compound 0.1 µM),relative viability ([2]; first compound 0.3162 µM),relative viability ([2]; first compound 1 µM),relative viability ([3]; first compound 0.02 µM),relative viability ([3]; first compound 0.06325 µM),relative viability ([3]; first compound 0.2 µM),relative viability ([3]; first compound 0.6325 µM),relative viability ([4]; first compound 0.02 µM),relative viability ([4]; first compound 0.06325 µM),relative viability ([4]; first compound 0.2 µM),relative viability ([4]; first compound 0.6325 µM)
CAL-12T,0.641,0.693,0.639,0.549,0.413,0.36,0.609,0.489,0.419,0.396,0.542,0.425,0.523,0.521,0.363,0.258,0.285,0.258
SW 1573,0.573,0.658,0.585,0.506,0.529,0.471,0.615,0.435,0.459,0.487,1.19,1.01,1.04,0.788,0.589,0.362,0.534,0.446
NCI-H1666,0.699,0.843,0.839,0.733,0.784,0.457,0.448,0.42,0.439,0.534,0.506,0.286,0.351,0.477,0.759,0.831,0.837,0.729
BEN,0.291,0.295,0.289,0.281,0.281,0.738,0.637,0.518,0.557,0.546,0.69,0.829,0.637,0.648,0.295,0.341,0.368,0.371
EMC-BAC-2,0.405,0.441,0.371,0.403,0.353,0.459,0.56,0.452,0.544,0.535,0.955,0.898,0.905,0.862,0.352,0.419,0.379,0.391
NCI-H1299,–,–,–,–,–,0.869,0.874,0.637,0.769,0.67,1.06,0.959,1.02,0.812,–,–,–,–
ABC-1,0.569,0.536,0.444,0.488,0.442,0.786,0.778,0.759,0.71,0.699,1.22,1.27,0.967,1.03,0.512,0.37,0.47,0.566
NCI-H2170,0.597,0.802,0.552,0.713,0.633,0.266,0.3,0.296,0.306,0.302,0.265,0.267,0.274,0.247,0.533,0.515,0.48,0.412
NCI-H1437,0.942,0.888,0.845,0.763,0.802,0.538,0.443,0.435,0.386,0.404,0.588,0.528,0.351,0.252,0.334,0.231,0.197,0.215
EBC-1,–,–,–,–,–,0.436,0.59,0.348,0.339,0.406,0.203,0.201,0.239,0.199,–,–,–,–
NCI-H3122,1.09,0.979,0.983,0.871,0.909,0.797,0.619,0.576,0.568,0.683,0.882,0.805,0.801,0.754,0.712,0.702,0.684,0.534
NCI-H2342,0.767,0.708,0.554,0.715,0.665,–,–,–,–,–,–,–,–,–,0.362,0.32,0.37,0.293
ChaGo-K-1,0.716,0.634,0.516,0.552,0.479,0.91,0.998,–,0.825,0.727,–,–,–,–,0.587,0.615,0.664,0.592
A549,–,–,–,–,–,0.48,0.542,0.564,0.493,0.482,0.84,0.731,0.749,0.5,–,–,–,–
SW 900,0.641,0.548,0.484,0.525,0.604,–,–,–,–,–,–,–,–,–,0.709,0.491,0.541,0.572
NCI-H441,0.569,0.566,0.608,0.575,0.553,0.611,0.479,0.431,0.46,0.444,–,–,–,–,0.602,0.363,0.41,0.307
NCI-H1703,–,–,–,–,–,0.22,0.266,0.206,0.229,0.236,1.19,1.17,1.17,0.994,–,–,–,–
IA-LM,–,–,–,–,–,0.354,0.322,0.275,0.317,0.337,0.395,0.182,0.111,0.108,–,–,–,–
NCI-H1648,0.287,0.24,0.313,0.265,0.256,–,–,–,–,–,–,–,–,–,–,–,–,–
